Where two headings read alike, the source gives them in different places.
Legend:
[1] = Fluorescence-based competition assay using FluoZin-3 (compound-Zn2+ dissociation constant); format: binding; details: FluoZin-3 competition, PBS pH 7.4, room temperature; read-out: Compound-Zn^2+ KD
Protocol: The dissociation constant (Kd) of zinc to zinc-attenuating compounds was determined at room temperature using FluoZin-3 (F24194; […] Testing buffer consisted of PBS (pH 7.4) with 200 nM ZnCl2 and 500 nM FluoZin-3. In a microtiter plate, 98 μl of testing buffer was mixed with 2 μl of compound at a range of concentrations to determine the half-maximal inhibitory concentration (IC50). Testing plates were incubated for 2 min before being read at an excitation wavelength of 485 nm and an emission wavelength of 516 nm with a Fluoroskan Ascent microplate fluorometer (Thermo Fisher Scientific).

[2] = test system: C. parapsilosis ATCC 22019; test: Antifungal susceptibility testing (MIC); format: cell-based, Candida parapsilosis; details: Lodderomyces parapsilosis, ATCC22019; at least 50% growth inhibition, RPMI, 24 h, 34°C
Protocol: (§1) Antifungal susceptibility testing was carried out as described previously ([38], [39]), with a few modifications. Briefly, for each yeast or mold growth inhibition assay, frozen stocks of yeast cells or spores were diluted to a final concentration of 0.5 × 10^5 to 2.5 × 10^5 CFU/ml in sterile water. ZAC989, ZAC307, and ZAC623 were dissolved in DMSO to 10 mM stocks from which half-log serial dilutions were prepared. Growth assays were subsequently performed by pipetting 3 μl of compound dissolved in DMSO (giving a final concentration of 1.5% DMSO), 100 μl of cell-spore suspension, and 97 μl of 2× RPMI medium (20.8 g/liter of RPMI 1640 medium, 69.06 g/liter of morpholinepropanesulfonic acid [MOPS], 36 g/liter of glucose) into a microtiter plate that was incubated for 24 h (yeasts) or 48 to 72 h (molds) at 34°C. Fungal growth was determined spectrophotometrically by optical density reading of each well at a wavelength of 492 nm on a Victor X5 (Perkin-Elmer) plate reader. […] Standard errors between repeated experiments were generally below 5%. The growth effect of exogenous addition of various divalent metals was evaluated by performing the antifungal susceptibility assay in the presence of 5 μM ZAC989 or ZAC307 and with increasing concentrations (0.003 to 50 μM) of ZnSO4, CuSO4, (NH4)2Fe(SO4)2, MgCl2, and CaCl2.

C. albicans SC5314 [3] = test: Antifungal susceptibility testing (MIC); format: cell-based, Candida albicans
Protocol: as §1

C. krusei ATCC 6258 = test: Antifungal susceptibility testing (MIC); format: cell-based, Candida krusei; details: Pichia kudriavzevii, ATCC6258; at least 50% growth inhibition, RPMI, 24 h, 34°C
Protocol: as §1

[4] = cited from earlier work
Candida albicans SC5314 = test: In vivo fungal kidney burden candidiasis model; design: species or system BALB/c mice; details: fluconazole 3 mg/kg p.o.
Protocol: A murine model of systemic candidiasis was established according to a previously described method ([44]). BALB/c mice were infected with a 0.1-ml inoculum (1 × 10^5 to 5 × 10^5 CFU) of Candida albicans SC5314 cells by the intravenous route on day 0. Compounds were tested at doses of 60 mg/kg. Administration of compound was initiated 24 h prior (day −1) to infection (day 0) by the intraperitoneal route, dosing twice a day for 4 days (day −1 to day 2). ZAC307 was also evaluated with administration of the compounds given after the infection at day 0 (no pretreatment) and following dosing twice a day for 3 days (days 0 to 2). Fluconazole was used as a comparator drug. Six mice were used for each group, and the untreated control group was exposed to the vehicle alone. ZAC989 and ZAC307 were formulated by taking 60 mg of compound and adding this to 2 ml and 4 ml of 0.1 N NaOH, respectively. After mixing and sonication of the resulting solutions, 4 ml of purified water was added. The pH was adjusted to 9.0 with 0.1 N HCl solution, followed by the addition of 90 mg of NaCl. The solutions were then diluted to 10 ml and filtered through a 0.22-μm polyvinylidene difluoride (PVDF) filter. Sample collection and processing were performed as follows. Twelve hours after the last dose, all treated and untreated animals were sacrificed by cervical dislocation and kidneys were collected in 3 ml of sterile normal saline. The samples were homogenized, serially diluted, and plated on Sabouraud dextrose agar (SDA). SDA plates were incubated for 24 to 48 h at 35°C, and CFU were enumerated and reported as log CFU/kidney. The endpoint was mean log CFU of fungi in kidneys of treated animals compared to that of untreated animals. The study was conducted in conformance with an application submitted to the Committee for the Purpose of Control and Supervision of Experiments on Animals (CPCSEA), New Delhi, India, after approval from the Institutional Animal Ethics Committee (IAEC).

C. albicans = test: Resistance study (repeated exposure); format: cell-based, Candida albicans; details: SDwoz medium, 36-day period, 22 passages
Protocol: The propensity for resistance development was investigated as also described previously ([41]), but with the following modifications. […] Over a 36-day period, culture aliquots of 100 μl were periodically (every 1 to 2 days) transferred (passaged) to new culture tubes with 900 μl of fresh medium and fresh compound. […] Cells were passaged a total of 22 times, and cultures were periodically tested for antifungal susceptibility by following the protocol for antifungal susceptibility testing, as described above.

C. albicans SC5314 [5] = test: Time-kill assay; format: cell-based, Candida albicans; details: 0.5 μg/ml AMB, 3.6 μg/ml ZAC989, 4.4 μg/ml EDTA, 4.2 μg/ml TPEN; up to 24 h
Protocol: C. albicans SC5314 cells (10^5 CFU/ml) were incubated in 10 ml of RPMI medium at 30°C with gentle agitation (150 rpm) in the presence of EDTA (15 μM), TPEN (10 μM), ZAC989 (10 μM), or AMB (0.5 μM). At the desired time points (0, 3, 5.5, and 24 h), a 100-μl aliquot was removed for each test condition and serially diluted (10-fold) in saline (0.9% NaCl), and 30 μl of each dilution was plated on YPD agar plates. The colony count on each YPD plate was determined after incubation at 30°C for 48 h ([40]). C. albicans cells treated with DMSO (1%, vol/vol) served as a control.

A. fumigatus = test system: A. fumigatus; design: method as in PMID 27401578; details: monotherapy; cited from earlier work

Cc1cc(N)n(-c2cc(N3CC[C@H](Oc4cnccc4C#N)C3)ncn2)n1 [ZAC623, 3-[(3S)-1-[6-(5-amino-3-methyl-pyrazol-1-yl)pyrimidin-4-yl]pyrrolidin-3-yl]oxypyri-dine-4-carbonitrile]
Kd [1]: > 6000 nM | MIC [2]: > 54 µg/mL | growth-inhibitory activity (in words) (C. albicans SC5314 [3]): did not display growth-inhibitory activity | MIC (C. albicans SC5314 [3]; Candida albicans, SC5314, 24 h, at least 50% growth inhibition, RPMI, 24 h, 34°C, read-out: MIC): > 54 µg/mL | MIC (C. krusei ATCC 6258): > 54 µg/mL

COc1cc(O)c(-c2nc3c(CNCc4ccccn4)cccc3o2)cc1OC [Zinbo-5]
Kd ([4]; read-out: affinity constant for zinc): 2.2 nM

OC(Cn1cncn1)(Cn1cncn1)c1ccc(F)cc1F [Fluconazole, fluconazole, reference compound]
Mean log CFU/kidney (Candida albicans SC5314): 3.02 ± 0.22 log CFU/kidney | Mean log CFU/kidney reduction (Candida albicans SC5314; vs untreated control): 2.78 log CFU/kidney | change in the MIC after repeated exposure (C. albicans): significant increase in the MIC

C[C@@H]1[C@H](O)[C@@H](C)/C=C/C=C/C=C/C=C/C=C/C=C/C=C/[C@H](O[C@@H]2O[C@H](C)[C@@H](O)[C@H](N)[C@@H]2O)C[C@@H]2O[C@](O)(C[C@@H](O)C[C@@H](O)[C@H](O)CC[C@@H](O)C[C@@H](O)CC(=O)O[C@H]1C)C[C@H](O)[C@H]2C(=O)O [amphotericin B]
time-kill activity (fungistatic or fungicidal) (C. albicans SC5314 [5]): fungicidal activity after 3 h of exposure

c1cnc2c(c1)ccc1cccnc12 [phenanthroline]
survival and fungal burden (A. fumigatus): significant improvements in survival with concomitant reduction in fungal burden

COc1ccc(N(CC(=O)O)CC(=O)O)c(OCCOc2cc(-c3c4cc(F)c(=O)cc-4oc4cc(O)c(F)cc34)ccc2NCC(=O)O)c1 [FluoZin-3]
Kd ([4]; read-out: Kd (FluoZin-3–Zn^2+)): 15 nM

— publication PMC5923171, “Novel Zinc-Attenuating Compounds as Potent Broad-Spectrum Antifungal Agents with In Vitro and In Vivo Efficacy” (Antimicrobial Agents and Chemotherapy, 2018)
